# Measurements published in patent US7323490B2, “Pyrrole compounds and uses thereof” (Ambit Biosciences Corporation, priority 2003, dated 2008).
# “And” between values parts separate entries of the source, which are not always exact repeats. Identical values can stand only once. Like-named read-outs stand apart in the source and are kept apart here.
# Tests used:
# [1] = system: focal cerebral ischemia; details: for Infarct Volume: 1 h post, 24 h post MCAo, mean ± SEM
# Description: Control animals were injected with the vehicle for the test compounds. Survival was maintained for 48 hrs. The cortical infarction sizes were used as endpoints for efficacy evaluation.
# Animal Preparation and Middle Cerebral Artery Occlusion. Male, adult, Sprague-Dawley rats (Charles River), weighing 300-400 grams, were used for the study. All animals were acclimated at least for five days before entering the study. Animals were housed in a standard animal facility and fed with commercial rodent chow ad libitum. All animals were anesthetized via intramuscular injection (4 mL/kg) of “cocktail” containing ketamine (25 mg/mL), xylazine (1.3 mg/mL) and acepromazine (0.33 mg/mL). Both carotid arteries were separated with great caution to minimize the vagal nerve stimulation. The right proximal MCA trunk was exposed through a subtemporal craniectomy without transecting the facial nerve. […] Immediately following MCA occlusion, both of the common carotid arteries were occluded for 1 hour using surgical aneurysm micro-clips (ROBOZ INC). Animals were put into temperature regulated recovery chamber for 1 hour before the clips were removed from the common carotid arteries. Body temperature was maintained at 37±0.5° C. during the surgery using a heating blanket connected to a temperature controller.
# Compound Administration and Storage. In a blinded random investigation, all animals were injected with the compound(s) or vehicle via S.C. as bolus injection at 2 hours pre, 1 hour post and 24 hours post-MCAo.
# Infarct Measurement. Forty-eight hours following MCAo, animals were euthanized with inhalation of CO2. Brains were removed and chilled in ice saline for 10 min. The brains were put in a metal rodent brain slicer. Each rat brain was cut coronally into 7 sections, with each section being 2 mm thick. The brain sections were immersed in 2% TTC solution for 30 min at 37° C. The areas of cerebral infarcts were determined on seven slices, using a computer-interfaced imaging system, Image-Pro® Plus, Version 4.4 for Windows (Media Cybernetics, MD). Infarct areas were then summed among slices and multiplied by slice thickness to give the total infarct volume.
# Statistics. All data are expressed as mean±SEM. Infarct volume was analyzed using Student t Test. A p value of ≦0.05 was considered a statistically significant difference. All statistical analyses were performed with the software package JMP version 4.0 (SAS Institute Inc., Cary, N.C.).
# [2] = system: focal cerebral infarcts (MCAo); assay: Forelimb placing test, Tamura MCAo model; assay type: in vivo, rat; details: AVG, 0=normal, 10=maximally impaired
# Text: (§1) Surgical Preparation. Middle Cerebral Artery Occlusion (MCAo), Tamura Model. Focal cerebral infarcts were made by permanent occlusion of the proximal right middle cerebral artery using a modification of the method of Tamura et al. […] The temporalis muscle was bisected and reflected through an incision made midway between the eye and the eardrum canal. The proximal MCA was exposed through a subtemporal craniectomy without removing the zygomatic arch and without transecting the facial nerve. […] Animals were euthanatized at various time periods after MCA occlusion and the brains are removed for histological analysis. Behavioral Analysis. Two behavioral tests were performed, the limb placing and body swing test. […] Limb Placing. The limb placing tests were divided into both forelimb and hindlimb tests. For the forelimb-placing test, the examiner held the rat close to a tabletop and scored the rat's ability to place the forelimb on the tabletop in response to whisker, visual, tactile, or proprioceptive stimulation. Similarly, for the hindlimb placing test, the examiner assessed the rat's ability to place the hindlimb on the tabletop in response to tactile and proprioceptive stimulation. […] Typically, there was a slow and steady recovery of limb placing behavior during the first month after stroke. Experimental Groups and Compound Administration. A total of 80 animals underwent MCAo using subcutaneous administration of all test articles, according to the experimental design illustrated in Table 16. […] All animals were treated with the compound(s)/vehicle(s) as a blinded random investigation. The dose and route of administration is given below in Table 16.
# [3] = system: focal cerebral infarcts (MCAo); assay: Hindlimb placing test, Tamura MCAo model; assay type: in vivo, rat; details: AVG, 0=normal, 6=maximally impaired
# Text: as §1
# [4] = system: focal cerebral infarcts (MCAo); assay: Infarct volume measurement (H&E), Tamura MCAo model; assay type: in vivo, rat; details: day 7
# Text: Behavioral assessment as well as infarct volume of compound-treated animals in comparison to control (vehicle) volume animals was used for evaluating compound efficacy over a 7 day period.
# Surgical Preparation. Middle Cerebral Artery Occlusion (MCAo), Tamura Model. Focal cerebral infarcts were made by permanent occlusion of the proximal right middle cerebral artery using a modification of the method of Tamura et al. Male Sprague-Dawley rats (300-350 g) were anesthetized with 2% isoflourane in 50% Air/50% O2, and maintained with 1-1.5% isoflourane. The temporalis muscle was bisected and reflected through an incision made midway between the eye and the eardrum canal. The proximal MCA was exposed through a subtemporal craniectomy without removing the zygomatic arch and without transecting the facial nerve. […] Body temperature was maintained at 38° C.±1 throughout the entire procedure. Animals were euthanatized at various time periods after MCA occlusion and the brains are removed for histological analysis.
# Morphometric Analysis—Brain Perfusion. Seven days after the induction of focal ischemia, rats were deeply anesthetized with a ketamine, and xylazine cocktail. The animals were then perfused transcardially with normal saline (with heparin 2 unit/ml) followed by 4% paraformaldehyde for infarct volume measurement (H&E staining). Brains were removed and stored in 10% formalin to be sectioned and stained with Hematoxylin and Eosin.
# Infarct Volume Measurement. Using the Image Pro-Plus imaging system, a total of 7 images per brain of the posterior side of each slice were analyzed through digital analysis. The total direct infarct volume was calculated for the left hemisphere using the equation below. Digitizing and computation was done under blinded conditions.
# The total infarct volumes are calculated for each animal and subsequent group means were determined as volume of area (mm^3). To account for tissue shrinkage and possible edema the indirect method of infarct volume was calculated using the formula: Total Contralateral Hemisphere Volume−Total Infarcted Hemisphere Volume (mm^3)
# Experimental Groups and Compound Administration. A total of 80 animals underwent MCAo using subcutaneous administration of all test articles, according to the experimental design illustrated in Table 16. […] The time schedules for administration of all treated groups (10 animals/group) was divided as follows:
# All animals were treated with the compound(s)/vehicle(s) as a blinded random investigation. The dose and route of administration is given below in Table 16. Forty animals used in the first group of the study (group a.) Cerebral blood flow measurement was performed according to the protocol previously discussed on days 0, 1 and 5 with respect to MCAo.
# [5] = administered six hours after MCAo
# [6] = administered three hours after MCAo
# [7] = administered six hours after MCAo, listed as B
# [8] = administered three hours after MCAo, listed as B
# [9] = administered six hours after MCAo, listed as A
# [10] = administered three hours after MCAo, listed as A
Structure (SMILES),"Forelimb placing test score, D0 [2, 5]","Forelimb placing test score, D1 [2, 5]","Forelimb placing test score, D3 [2, 5]","Forelimb placing test score, D7 [2, 5]","Forelimb placing test score, D0 [2, 6]","Forelimb placing test score, D1 [2, 6]","Forelimb placing test score, D3 [2, 6]","Forelimb placing test score, D7 [2, 6]","Hindlimb placing test score, D0 [3, 5]","Hindlimb placing test score, D1 [3, 5]","Hindlimb placing test score, D3 [3, 5]","Hindlimb placing test score, D7 [3, 5]","Hindlimb placing test score, D0 [3, 6]","Hindlimb placing test score, D1 [3, 6]","Hindlimb placing test score, D3 [3, 6]","Hindlimb placing test score, D7 [3, 6]","Corrected Infarct Volume, Average [4, 5]","Percent Infarct Volume, Average [4, 5]","Corrected Infarct Volume, Average [4, 6]","Percent Infarct Volume, Average [4, 6]",also measured
CC(C)c1[nH]c(-c2ccc(F)cc2)c(-c2ccccc2)c1C(=O)Nc1ccccc1 [Compound 781430],0,8.9,8.5,6,0,8.9,7.6,4.3,0,5.3,3.5,3,0,4.1,2.8,2.1,283.4 mm^3,26.92%,213.77 mm^3,22.29%,"Infarct Volume ([1]; 1 mg/kg SC at 2 h pre, 48 h): 152.83 ± 13.78 mm^3; infarct volume compared with controls (significance) ([1]; 1 mg/kg SC, 48 h): not significantly different from controls; Infarct Volume ([1]; 10 mg/kg SC at 2 h pre, 48 h, listed as B): 65.99±25.01 mm^3; reduction in infarct volume from control ([1]; 10 mg/kg SC, 48 h): 57%; Corrected Infarct Volume, individual animals [4, 7]: 375.7 mm^3 and 204.5 mm^3 and 353.2 mm^3 and 262.2 mm^3 and 196.6 mm^3 and 352.4 mm^3 and 289.9 mm^3 and 195.4 mm^3 and 327.7 mm^3 and 276.5 mm^3; Percent Infarct Volume, individual animals [4, 7]: 31.4% and 21.7% and 26.2% and 33.9% and 15.6% and 29.1% and 28.8% and 25.4% and 35.3% and 21.8%; Corrected Infarct Volume, individual animals [4, 8]: 200.1 mm^3 and 231.7 mm^3 and 217.7 mm^3 and 173 mm^3 and 180.5 mm^3 and 224.1 mm^3 and 208.1 mm^3 and 233.4 mm^3 and 255.3 mm^3; Percent Infarct Volume, individual animals [4, 8]: 19.74% and 21.5679% and 24.3% and 20.62% and 19.71% and 23.99% and 22.56% and 24.24% and 23.9%"
CC(C)c1c(C(=O)Nc2ccccc2)c(-c2ccccc2)c(-c2ccc(F)cc2)n1CC(O)C(O)C(O)C(O)CO (centres unmarked) [Compound 782236],0,9.2,8.9,7,0,8.4,6.7,5.9,0,4.7,4,3.3,0,4.6,4,3.2,239.27 mm^3,26.69%,212.59 mm^3,23.53%,"Infarct Volume ([1]; 1 mg/kg SC at 2 h pre, 48 h, listed as A): 71.32±36.98 mm^3; reduction in infarct volume from control ([1]; 1 mg/kg SC, 48 h): 53%; animals died within the 24-hour period after the second injection ([1]; 10 mg/kg SC): Three; mortality rate ([1]; 10 mg/kg SC): 60%; Corrected Infarct Volume, individual animals [4, 9]: 227.2 mm^3 and 166.6 mm^3 and 234.6 mm^3 and 269.8 mm^3 and 249 mm^3 and 215.8 mm^3 and 229 mm^3 and 213.3 mm^3 and 271.4 mm^3 and 316 mm^3; Percent Infarct Volume, individual animals [4, 9]: 25.6% and 31.5% and 24.6% and 28.8% and 28.1% and 28.9% and 24.8% and 23.5% and 25.3% and 25.8%; Corrected Infarct Volume, individual animals [4, 10]: 210.9 mm^3 and 272.5 mm^3 and 275.6 mm^3 and 163.8 mm^3 and 249 mm^3 and 229.2 mm^3 and 127.9 mm^3 and 222.3 mm^3 and 235 mm^3 and 139.8 mm^3; Percent Infarct Volume, individual animals [4, 10]: 25.1% and 29% and 23.7% and 15.8% and 28.1% and 25.9% and 15.9% and 27.5% and 25.4% and 18.9%"
